Several values for one entry are separate records, joined by “and”; a condition that tells them apart may be missing. Identical values can stand only once.

What is called Papp A→B is the apparent permeability from the apical to the basolateral side of a cell layer. High values mean ready permeation, low ones poor permeation. By Papp B→A is commonly meant the apparent permeability from the basolateral to the apical side of a cell layer. Broadly, the efflux ratio is a quotient of directional permeabilities that is used to spot active efflux. The Papp is the rate of passage across a membrane or cell layer, normalised by area and donor concentration. A higher Papp goes with fast passage.

For series [1], the system named is Mtb H37Rv. Kind of series: BTZ-043 dose escalation study in Mtb-infected BALB/c mice (pulmonary CFU). The class given is in vivo, Mycobacterium tuberculosis. The settings on record: 25 mg/kg INH, individual female mice.
Series [2] concerns Mtb H37Rv. Nature of the series: BTZ-043 dose-fractionation study in Mtb-infected BALB/c mice (lung CFU). The class given is in vivo, Mycobacterium tuberculosis. The settings on record: 10 mg /kg INH; 6 weeks of treatment; individual female mice.
For series [3] the following is noted: cited from earlier work.
The nature of series [4]: In vitro permeability assay in Caco-2 monolayers. The settings on record: human; for Papp at 120 min, 25 µg/mL / Papp at 120 min, 40 µg/mL: Caco-2, Mean Papp, n=3; for Papp at 120 min, 25 µg/mL: Caco-2, 25 µg/mL; for Papp at 120 min, 40 µg/mL: Caco-2, 40 µg/mL. On the technique in general: Passage across Caco-2 layers is used to estimate intestinal permeability.
For another series, the system named is Caco-2 cell monolayers. Kind of series: In vitro permeability assay in Caco-2 monolayers. The conditions noted are these: for Concentration: replicates 1-3.
Another series has as its system Caco-2. The settings on record: cited from earlier work.

In the case of `NNC(=O)c1ccncc1` [INH, isoniazid, reference compound], the “pulmonary CFU counts / mouse” value in the series on Mtb H37Rv [1] (4 weeks of treatment) was 306600 CFU counts / mouse and 698438 CFU counts / mouse and 504563 CFU counts / mouse and 274286 CFU counts / mouse and 298200 CFU counts / mouse and 595125 CFU counts / mouse; with Mtb H37Rv [1] (6 weeks of treatment), 135000 CFU counts / mouse and 142313 CFU counts / mouse and 207692 CFU counts / mouse and 103500 CFU counts / mouse and 144000 CFU counts / mouse and 145313 CFU counts / mouse; in the series with Mtb H37Rv [1] (8 weeks of treatment), 40714 CFU counts / mouse and 48086 CFU counts / mouse and 100000 CFU counts / mouse and 45000 CFU counts / mouse and 32560 CFU counts / mouse and 144000 CFU counts / mouse; in the series with Mtb H37Rv [2], 251 CFU counts / mouse (2×) and 876 CFU counts / mouse and 1751 CFU counts / mouse.
Consider `NC(=O)c1cnccn1` [PZA, pyrazinamide], for which the “penetration into centrally necrotizing granulomas” value in series [3] is listed as “readily penetrates centrally necrotizing granulomas”. In series [4] (Caco-2), this molecule came in with an apparent permeability from apical to basolateral (Papp A→B) at 120 min of 49.7 to 61 ×10⁻⁶ cm/s. The molecule also yielded a Papp B→A at 120 min in series [4] (Caco-2) of 35 to 39.2 ×10⁻⁶ cm/s. In addition, the efflux ratio at 120 min, 25 µg/mL in series [4] (Caco-2) was 0.79. In addition, the efflux ratio at 120 min, 40 µg/mL in series [4] (Caco-2) turned out to be 0.57. Further, the Papp at 120 min, 25 µg/mL in series [4] (direction AB) was determined as 49.7 ×10⁻⁶ cm/s; in series [4] (direction BA) it was 39.2 ×10⁻⁶ cm/s. In addition, the values for the Papp at 120 min, 40 µg/mL in series [4] (direction AB) and in series [4] (direction BA) were 61 ×10⁻⁶ cm/s and 35 ×10⁻⁶ cm/s, respectively. In addition, the permeability classification entry with Caco-2 cell monolayers (Caco-2) is “highly permeable drug”. Moreover, the Concentration was 0 ng/mL with Caco-2 cell monolayers (PZA 25 μg mL^-1, direction AB, time 0 min); 0 ng/mL and 525.202 ng/mL in the series on Caco-2 cell monolayers (PZA 25 μg mL^-1, direction AB, time 10 min); 1333.17 ng/mL and 1096.85 ng/mL and 1005.65 ng/mL with Caco-2 cell monolayers (PZA 25 μg mL^-1, direction AB, time 30 min); 3321.25 ng/mL and 3452.37 ng/mL and 3341.43 ng/mL in the series with Caco-2 cell monolayers (PZA 25 μg mL^-1, direction AB, time 60 min); 3158.86 ng/mL and 3253.04 ng/mL and 3097.63 ng/mL with Caco-2 cell monolayers (PZA 25 μg mL^-1, direction AB, time 90 min); 4030.2 ng/mL and 4138.52 ng/mL and 3490.73 ng/mL in the series with Caco-2 cell monolayers (PZA 25 μg mL^-1, direction AB, time 120 min). For the same molecule, the Concentration was 0 ng/mL with Caco-2 cell monolayers (PZA 25 μg mL^-1, direction BA, time 0 min); 1503.99 ng/mL and 1317.17 ng/mL and 1941.63 ng/mL in the series on Caco-2 cell monolayers (PZA 25 μg mL^-1, direction BA, time 10 min); 5734.38 ng/mL and 4427.73 ng/mL and 5446.92 ng/mL in the series with Caco-2 cell monolayers (PZA 25 μg mL^-1, direction BA, time 30 min); 9786.14 ng/mL and 7994.45 ng/mL and 7975.63 ng/mL in the series with Caco-2 cell monolayers (PZA 25 μg mL^-1, direction BA, time 60 min); 11259.4 ng/mL and 8631.13 ng/mL and 9901.08 ng/mL with Caco-2 cell monolayers (PZA 25 μg mL^-1, direction BA, time 90 min); 13405.8 ng/mL and 11006.7 ng/mL and 13558.7 ng/mL in the series on Caco-2 cell monolayers (PZA 25 μg mL^-1, direction BA, time 120 min). Besides, the Concentration with Caco-2 cell monolayers (PZA 40 μg mL^-1, direction AB, time 0 min) was 0 ng/mL; in the series on Caco-2 cell monolayers (PZA 40 μg mL^-1, direction AB, time 10 min), 1048.64 ng/mL and 287.742 ng/mL and 2327.22 ng/mL; in the series on Caco-2 cell monolayers (PZA 40 μg mL^-1, direction AB, time 30 min) it was 1430.93 ng/mL and 3432 ng/mL and 3592.69 ng/mL; in the series with Caco-2 cell monolayers (PZA 40 μg mL^-1, direction AB, time 60 min), 4853.22 ng/mL and 4349.7 ng/mL and 4275.28 ng/mL; in the series on Caco-2 cell monolayers (PZA 40 μg mL^-1, direction AB, time 90 min), 5770.39 ng/mL and 5601.9 ng/mL and 5436.88 ng/mL; in the series on Caco-2 cell monolayers (PZA 40 μg mL^-1, direction AB, time 120 min), 4977.56 ng/mL and 4113.08 ng/mL and 4440.77 ng/mL. The Concentration in the series with Caco-2 cell monolayers (PZA 40 μg mL^-1, direction BA, time 0 min) was 4045.86 ng/mL and 115.41 ng/mL and 340.993 ng/mL; with Caco-2 cell monolayers (PZA 40 μg mL^-1, direction BA, time 10 min), 3969.46 ng/mL and 1843.77 ng/mL and 2669.48 ng/mL; in the series on Caco-2 cell monolayers (PZA 40 μg mL^-1, direction BA, time 30 min), 5459.68 ng/mL and 4472.97 ng/mL and 5086.94 ng/mL; in the series on Caco-2 cell monolayers (PZA 40 μg mL^-1, direction BA, time 60 min) it was 9734.39 ng/mL and 8339.56 ng/mL and 9591.97 ng/mL; in the series on Caco-2 cell monolayers (PZA 40 μg mL^-1, direction BA, time 90 min), 11611.6 ng/mL and 10257.1 ng/mL and 12377.9 ng/mL; with Caco-2 cell monolayers (PZA 40 μg mL^-1, direction BA, time 120 min) it was 12904.2 ng/mL and 13264.5 ng/mL and 15050 ng/mL. Moreover, the “Calculated Amount” value in the series on Caco-2 cell monolayers (PZA (25 µg mL^-1), direction AB, compartment api, time 0 min) is 20066.1 and 22292.2 and 24678; in the series on Caco-2 cell monolayers (PZA (25 µg mL^-1), direction AB, compartment api, time 120 min) it was 10717.9 and 11820.9 and 10695.5; in the series on Caco-2 cell monolayers (PZA (25 µg mL^-1), direction AB, compartment baso, time 0 min), 0; with Caco-2 cell monolayers (PZA (25 µg mL^-1), direction AB, compartment baso, time 30 min), 1096.85 and 1005.65; with Caco-2 cell monolayers (PZA (25 µg mL^-1), direction AB, compartment baso, time 60 min), 3321.25 and 3452.37 and 3341.43; in the series with Caco-2 cell monolayers (PZA (25 µg mL^-1), direction AB, compartment baso, time 90 min) it was 3158.86 and 3253.04 and 3097.63. In addition, the “Calculated Amount” value with Caco-2 cell monolayers (PZA (25 µg mL^-1), direction AB, compartment baso, time 120 min) is 4030.2 and 4138.52 and 3490.73; with Caco-2 cell monolayers (PZA (25 µg mL^-1), direction BA, compartment api, time 0 min), 0; with Caco-2 cell monolayers (PZA (25 µg mL^-1), direction BA, compartment api, time 10 min), 1503.99 and 1317.17 and 1941.63; with Caco-2 cell monolayers (PZA (25 µg mL^-1), direction BA, compartment api, time 30 min) it was 5734.38 and 4427.73 and 5446.92; in the series with Caco-2 cell monolayers (PZA (25 µg mL^-1), direction BA, compartment api, time 60 min), 9786.14 and 7994.45 and 7975.63; in the series on Caco-2 cell monolayers (PZA (25 µg mL^-1), direction BA, compartment api, time 90 min) it was 11259.4 and 8631.13 and 9901.08. Moreover, the “Calculated Amount” value in the series on Caco-2 cell monolayers (PZA (25 µg mL^-1), direction BA, compartment api, time 120 min) is 13405.8 and 11006.7 and 13558.7; with Caco-2 cell monolayers (PZA (25 µg mL^-1), direction BA, compartment baso, time 120 min), 22133.4; with Caco-2 cell monolayers (PZA (40 µg mL^-1), direction AB, compartment api, time 120 min), 15162.6 and 15570.7 and 14836.3; in the series on Caco-2 cell monolayers (PZA (40 µg mL^-1), direction BA, compartment baso, time 120 min) it was 27713.4 and 29783.3 and 27759.2. Besides, the “Papp (AB)” value in the series with Caco-2 was 70.4 10^−6 cm/s. In addition, the “Papp (BA)” value in the series on Caco-2 is 37.1 10^−6 cm/s.
As to `CO[C@H]1/C=C/O[C@@]2(C)Oc3c(C)c(O)c4c(O)c(c(/C=N/N5CCN(C)CC5)c(O)c4c3C2=O)NC(=O)/C(C)=C\C=C\[C@H](C)[C@H](O)[C@@H](C)[C@@H](O)[C@@H](C)[C@H](OC(C)=O)[C@@H]1C` [RIF, rifampicin], in series [3], the “penetration into the cellular rim and necrotic center” value is “at least some penetration”.
For `CC(C)=CCC/C(C)=C/CNCCNC1C2CC3CC(C2)CC1C3` (stereo not shown) [SQ109], the “distribution in centrally necrotizing lesions by MALDI imaging” value in series [3] (in vivo) is recorded as “strong signals in the cellular rim of centrally necrotizing lesions but only poor diffusion into the avascular caseum”.
On to `CC(C)/N=c1\cc2n(-c3ccc(Cl)cc3)c3ccccc3nc-2cc1Nc1ccc(Cl)cc1` [clofazimine], for which, in series [3], the “penetration into centrally necrotizing granulomas” value is given as “only very limited penetration”. In the series with Caco-2, the “Papp (AB)” value is reported as 0.17 10^−6 cm/s and the “Papp (BA)” value was 0.18 10^−6 cm/s.

The values above are taken from PMC11742723, “The clinical-stage drug BTZ-043 accumulates in murine tuberculosis lesions and efficiently acts against Mycobacterium tuberculosis” (Nature Communications, 2025).
